Results as given in EP0477871A2, “Antiviral composition, containing guanine derivatives” (NIPPON KAYAKU KABUSHIKI KAISHA, priority 1990, dated 1992).
Read-outs that look alike come from different tables or passages of the source.

Columns and labels:
HSV-1 (VR-3) = assay: Plaque inhibition (growth inhibition) in vero cell monolayer, HSV-1; type: cell-based, herpes simplex virus 1 (HSV-1); settings: for IC50: Human alphaherpesvirus 1, Vero, compound alone, read-out: Concentraten at 50% plaque inhibition (IC50), single compound
Procedure: (§1) A monolayer culture of Cercopithecus sabaeus renal cells (vero cells) was prepared in Eagle's minimum medium containing 10% of newborn calf serum (MEM-CS10) by using a 24-well microplate. Then the medium was inoculated with 50 PFU/0.1 ml/well of herpes simplex virus 1 (HSV-1) or 2 (HSV-2). After effecting adsorption at 37°C for 1 hour, the cells in each well were washed with a phosphate buffer solution (PBS). Next, 0.5% methylcellulose-containing MEM-CS2 containing stepwise diluted OXT-G, ACV or C-OXT-G alone, a combination of OXT-G and ACV, a combination of OXT-G and C-OXT-G or a combination of ACV and C-OXT-G was laminated thereon and incubated at 37°C for 2 days. After discarding the laminated medium and fixing the cells with […], the cells were stained with a Crystal Purple solution and plaques formed in each well were counted. Then the ratio (%) of the plaque count at each concentration to that of the control lot, to which no chemical was added, was determined to thereby give the 50% plaque inhibition concentration (IC₅₀). Thus the inhibitory rate (%) against the concentration of each compound was calculated.

HSV-2 (VW-268) = assay: Plaque inhibition (growth inhibition) in vero cell monolayer, HSV-2; type: cell-based, herpes simplex virus 2 (HSV-2); settings: for IC50: Human alphaherpesvirus 2, Vero, compound alone, read-out: Concentraten at 50% plaque inhibition (IC50), single compound
Procedure: as §1

## Nc1nc2c(ncn2COCCO)c(=O)[nH]1 [ACV, 9-(2-hydroxyethoxymethyl)guanine, reference compound]
HSV-1 (VR-3); ACV alone 0.04 μg/mℓ
  ACV inhibitory rate (single compound at the same concn., theoretical): (2%)
HSV-1 (VR-3); ACV alone 0.08 μg/mℓ
  ACV inhibitory rate (single compound at the same concn., theoretical): (3%)
HSV-1 (VR-3); ACV alone 0.1 μg/mℓ
  ACV inhibitin rate (single compound at the same concn., theoretical): (6%)
HSV-1 (VR-3); ACV alone 0.32 μg/mℓ
  ACV inhibitory rate (single compound at the same concn., theoretical): (12%)
HSV-1 (VR-3); ACV alone 0.42 μg/mℓ
  ACV inhibitory rate (single compound at the same concn., theoretical): (15%)
HSV-1 (VR-3); ACV alone 0.58 μg/mℓ
  ACV inhibitin rate (single compound at the same concn., theoretical): (37%)
HSV-1 (VR-3); ACV alone 0.78 μg/mℓ
  ACV inhibitin rate: 50%
HSV-1 (VR-3); ACV alone 1.4 μg/mℓ
  ACV inhibitory rate: 50%
HSV-1 (VR-3); C-OXT-G/ACV series
  IC50: 0.78 µg/mL
HSV-1 (VR-3); OXT-G/ACV series
  IC50: 1.4 µg/mL
HSV-2 (VW-268); ACV alone 0.1 μg/mℓ
  ACV inhibitory rate (single compound at the same concn., theoretical): (2%)
HSV-2 (VW-268); ACV alone 0.4 μg/mℓ
  ACV inhibitory rate (single compound at the same concn., theoretical): (8%)
HSV-2 (VW-268); ACV alone 1.3 μg/mℓ
  ACV inhibitory rate (single compound at the same concn., theoretical): (19%)
HSV-2 (VW-268); ACV alone 1.5 μg/mℓ
  ACV inhibitory rate (single compound at the same concn., theoretical): (30%)
HSV-2 (VW-268); ACV alone 1.8 μg/mℓ
  ACV inhibitory rate (single compound at the same concn., theoretical): (36%)
HSV-2 (VW-268); ACV alone 1.9 μg/mℓ
  ACV inhibitory rate (single compound at the same concn., theoretical): (28%)
HSV-2 (VW-268); ACV alone 2.5 μg/mℓ
  ACV inhibitory rate: 50%
HSV-2 (VW-268); ACV alone 2.7 μg/mℓ
  ACV inhibitory rate (single compound at the same concn., theoretical): (40%)
HSV-2 (VW-268); ACV alone 3.4 μg/mℓ
  ACV inhibitory rate: 50%
HSV-2 (VW-268); C-OXT-G/ACV series
  IC50: 2.5 µg/mL
HSV-2 (VW-268); OXT-G/ACV series
  IC50: 3.4 µg/mL

## Nc1nc2c(ncn2[C@@H]2C[C@H](CO)[C@H]2CO)c(=O)[nH]1 [C-OXT-G, (+)-9-[(1R,2R,3S)-2,3-bis(hydroxymethyl)cyclobutyl]guanine]
HSV-1 (VR-3); C-OXT-G alone 0.01 μg/mℓ
  C-OXT-G inhibitory rate (single compound at the same concn., theoretical): (2%)
HSV-1 (VR-3); C-OXT-G alone 0.04 μg/mℓ
  C-OXT-G inhibitory rate (single compound at the same concn., theoretical): (3%)
HSV-1 (VR-3); C-OXT-G alone 0.1 μg/mℓ
  C-OXT-G inhibitory rate (single compound at the same concn., theoretical): (8%)
HSV-1 (VR-3); C-OXT-G alone 0.2 μg/mℓ
  C-OXT-G inhibitory rate (single compound at the same concn., theoretical): (33%)
HSV-1 (VR-3); C-OXT-G alone 0.3 μg/mℓ
  C-OXT-G inhibitory rate: 50%
HSV-1 (VR-3); C-OXT-G alone 0.4 μg/mℓ
  C-OXT-G inhibitory rate (single compound at the same concn., theoretical): (33.3%)
HSV-1 (VR-3); C-OXT-G alone 0.60 μg/mℓ
  C-OXT-G inhibitory rate: 50%
HSV-1 (VR-3); C-OXT-G/ACV series
  IC50: 0.3 µg/mL
HSV-1 (VR-3); OXT-G/C-OXT-G series
  IC50: 0.6 µg/mL
HSV-2 (VW-268); C-OXT-G alone 0.04 μg/mℓ
  C-OXT-G inhibitory rate (single compound at the same concn., theoretical): (3%)
HSV-2 (VW-268); C-OXT-G alone 0.1 μg/mℓ
  C-OXT-G inhibitory rate (single compound at the same concn., theoretical): (7%)
HSV-2 (VW-268); C-OXT-G alone 0.3 μg/mℓ
  C-OXT-G inhibitory rate (single compound at the same concn., theoretical): (20%)
HSV-2 (VW-268); C-OXT-G alone 0.54 μg/mℓ
  C-OXT-G inhibitory rate (single compound at the same concn., theoretical): (36%)
HSV-2 (VW-268); C-OXT-G alone 0.74 μg/mℓ
  C-OXT-G inhibitory rate: 50%
HSV-2 (VW-268); C-OXT-G/ACV series
  IC50: 0.74 µg/mL

## Nc1nc2c(ncn2[C@@H]2O[C@H](CO)[C@H]2CO)c(=O)[nH]1 [OXT-G, 9-(2-deoxy-2-hydroxymethyl-β-D-erythrooxetanosyl)guanine]
HSV-1 (VR-3); OXT-G/ACV series
  IC50: 7 µg/mL
HSV-1 (VR-3); OXT-G/C-OXT-G series
  IC50: 7.3 µg/mL
HSV-1 (VR-3); OXT-G alone 0.1 μg/mℓ
  OXT-G inhibitory rate (single compound at the same concn., theoretical): (1%)
HSV-1 (VR-3); OXT-G alone 0.4 μg/mℓ
  OXT-G inhibitory rate (single compound at the same concn., theoretical): (3%)
HSV-1 (VR-3); OXT-G alone 1.0 μg/mℓ
  OXT-G inhibitory rate (single compound at the same concn., theoretical): (7%)
HSV-1 (VR-3); OXT-G alone 1.7 μg/mℓ
  OXT-G inhibitory rate (single compound at the same concn., theoretical): (12%)
HSV-1 (VR-3); OXT-G alone 3.0 μg/mℓ
  OXT-G inhibitory rate (single compound at the same concn., theoretical): (26%)
HSV-1 (VR-3); OXT-G alone 4.0 μg/mℓ
  OXT-G inhibitory rate (single compound at the same concn., theoretical): (29%)
HSV-1 (VR-3); OXT-G alone 5.4 μg/mℓ
  OXT-G inhibitory rate (single compound at the same concn., theoretical): (39%)
HSV-1 (VR-3); OXT-G alone 7.0 μg/mℓ
  OXT-G inhibitory rate: 50%
HSV-1 (VR-3); OXT-G alone 7.3 μg/mℓ
  OXT-G inhibitory rate: 50%
HSV-2 (VW-268); OXT-G/ACV series
  IC50: 10 µg/mL
HSV-2 (VW-268); OXT-G alone 0.4 μg/mℓ
  OXT-G inhibitory rate (single compound at the same concn., theoretical): (2%)
HSV-2 (VW-268); OXT-G alone 1.0 μg/mℓ
  OXT-G inhibitory rate (single compound at the same concn., theoretical): (5%)
HSV-2 (VW-268); OXT-G alone 4.0 μg/mℓ
  OXT-G inhibitory rate (single compound at the same concn., theoretical): (20%)
HSV-2 (VW-268); OXT-G alone 10.0 μg/mℓ
  OXT-G inhibitory rate: (50%)
